Source: PMC5362750, “Discovery of Potent, Selective, and Orally Bioavailable Small-Molecule Modulators of the Mediator Complex-Associated Kinases CDK8 and CDK19” (Journal of Medicinal Chemistry, 2016)

Legend:
BB3 (h) = biological target: T1, BB3 (h) (Homo sapiens, UniProt P32247); test: CEREP binding assay; details: agonist radioligand, read-out: % Inhibition of Control Specific Binding
T1 construct: purchased Millipore (KinaseProfiler) kinase panel

BLT1 (LTB4) (h) = biological target: T2, BLT1 (LTB4) (h) (Homo sapiens, UniProt Q15722); test: CEREP binding assay; details: agonist radioligand, read-out: % Inhibition of Control Specific Binding
T2 construct: purchased Millipore (KinaseProfiler) kinase panel

MCH1 (h) = biological target: T3, MCH1 (h) (Homo sapiens, UniProt Q99705); test: CEREP binding assay; details: agonist radioligand, read-out: % Inhibition of Control Specific Binding
T3 construct: purchased Millipore (KinaseProfiler) kinase panel
T3 sequence (Q99705 whole entry): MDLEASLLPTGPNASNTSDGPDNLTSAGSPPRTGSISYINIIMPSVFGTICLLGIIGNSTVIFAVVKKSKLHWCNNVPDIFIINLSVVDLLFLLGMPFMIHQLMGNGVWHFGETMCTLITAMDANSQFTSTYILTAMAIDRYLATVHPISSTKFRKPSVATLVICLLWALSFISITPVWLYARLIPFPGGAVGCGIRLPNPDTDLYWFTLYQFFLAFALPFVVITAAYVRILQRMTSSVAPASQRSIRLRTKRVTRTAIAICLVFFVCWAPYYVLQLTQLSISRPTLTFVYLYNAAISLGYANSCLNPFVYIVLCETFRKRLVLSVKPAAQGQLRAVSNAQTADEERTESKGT

[1] = human
ALK4 = biological target: T4, ALK4 (Homo sapiens, UniProt P36896); test: Kinase panel (Millipore); assay type: biochemical; details: 1 µM, ATP at Km
T4 construct: purchased Millipore (KinaseProfiler) kinase panel
T4 sequence (P36896 24-505): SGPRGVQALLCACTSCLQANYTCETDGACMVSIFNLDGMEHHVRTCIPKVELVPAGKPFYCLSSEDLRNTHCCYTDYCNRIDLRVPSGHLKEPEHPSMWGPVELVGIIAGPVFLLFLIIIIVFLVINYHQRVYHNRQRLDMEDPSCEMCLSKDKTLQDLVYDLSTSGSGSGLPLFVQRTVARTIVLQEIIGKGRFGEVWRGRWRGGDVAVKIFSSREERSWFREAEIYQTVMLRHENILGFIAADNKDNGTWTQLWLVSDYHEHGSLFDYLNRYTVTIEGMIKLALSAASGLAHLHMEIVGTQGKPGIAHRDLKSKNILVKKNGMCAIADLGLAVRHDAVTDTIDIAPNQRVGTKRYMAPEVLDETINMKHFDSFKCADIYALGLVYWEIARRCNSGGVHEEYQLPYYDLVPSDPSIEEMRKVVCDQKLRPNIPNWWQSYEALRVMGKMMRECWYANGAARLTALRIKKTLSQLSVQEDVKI

LIMK1 = LIMK1 (Homo sapiens, UniProt P53667); test: Kinase panel (Millipore); assay type: biochemical; details: 1 µM, ATP at Km
ASK1 = ASK1 (Homo sapiens, UniProt Q99683); test: Kinase panel (Millipore); assay type: biochemical; details: 1 µM, ATP at Km
LYN = LYN (Homo sapiens, UniProt P07948); test: Kinase panel (Millipore); assay type: biochemical; details: 1 µM, ATP at Km
Chain of LYN (P07948 whole entry): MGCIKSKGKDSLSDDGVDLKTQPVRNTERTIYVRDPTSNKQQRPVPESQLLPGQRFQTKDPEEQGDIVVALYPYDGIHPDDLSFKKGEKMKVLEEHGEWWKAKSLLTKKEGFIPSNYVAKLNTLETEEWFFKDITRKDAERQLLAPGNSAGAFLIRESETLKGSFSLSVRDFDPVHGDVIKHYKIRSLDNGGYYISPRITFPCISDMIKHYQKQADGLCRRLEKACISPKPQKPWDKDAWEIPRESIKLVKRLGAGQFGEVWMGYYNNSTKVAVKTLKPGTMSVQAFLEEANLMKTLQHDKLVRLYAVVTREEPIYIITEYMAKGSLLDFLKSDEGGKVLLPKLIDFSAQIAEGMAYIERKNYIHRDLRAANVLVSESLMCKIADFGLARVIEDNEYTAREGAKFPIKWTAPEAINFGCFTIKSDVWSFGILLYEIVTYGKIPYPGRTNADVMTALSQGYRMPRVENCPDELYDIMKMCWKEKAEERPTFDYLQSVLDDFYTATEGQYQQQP

MAPK2 = MAPK2 (Homo sapiens, UniProt P28482); test: Kinase panel (Millipore); assay type: biochemical; details: 1 µM, ATP at Km
MEK1 = MEK1 (Homo sapiens, UniProt Q02750); test: Kinase panel (Millipore); assay type: biochemical; details: 1 µM, ATP at Km
CAMKIV = CAMKIV (Homo sapiens, UniProt Q16566); test: Kinase panel (Millipore); assay type: biochemical; details: 1 µM, ATP at Km
FGFR4 = FGFR4 (Homo sapiens, UniProt P22455); test: Kinase panel (Millipore); assay type: biochemical; details: 1 µM, ATP at Km
FLT3 = biological target: T5, FLT3 (Homo sapiens, UniProt P36888); test: Kinase panel (Millipore); assay type: biochemical; details: 1 µM, ATP at Km
T5 construct: purchased Millipore (KinaseProfiler) kinase panel

MLK1 = biological target: T6, MLK1 (Homo sapiens, UniProt P80192); test: Kinase panel (Millipore); assay type: biochemical; details: 1 µM, ATP at Km
T6 construct: purchased Millipore (KinaseProfiler) kinase panel

FLT4 = biological target: T7, FLT4 (Homo sapiens, UniProt P35916); test: Kinase panel (Millipore); assay type: biochemical; details: 1 µM, ATP at Km
T7 construct: purchased Millipore (KinaseProfiler) kinase panel
T7 sequence (P35916 25-1363): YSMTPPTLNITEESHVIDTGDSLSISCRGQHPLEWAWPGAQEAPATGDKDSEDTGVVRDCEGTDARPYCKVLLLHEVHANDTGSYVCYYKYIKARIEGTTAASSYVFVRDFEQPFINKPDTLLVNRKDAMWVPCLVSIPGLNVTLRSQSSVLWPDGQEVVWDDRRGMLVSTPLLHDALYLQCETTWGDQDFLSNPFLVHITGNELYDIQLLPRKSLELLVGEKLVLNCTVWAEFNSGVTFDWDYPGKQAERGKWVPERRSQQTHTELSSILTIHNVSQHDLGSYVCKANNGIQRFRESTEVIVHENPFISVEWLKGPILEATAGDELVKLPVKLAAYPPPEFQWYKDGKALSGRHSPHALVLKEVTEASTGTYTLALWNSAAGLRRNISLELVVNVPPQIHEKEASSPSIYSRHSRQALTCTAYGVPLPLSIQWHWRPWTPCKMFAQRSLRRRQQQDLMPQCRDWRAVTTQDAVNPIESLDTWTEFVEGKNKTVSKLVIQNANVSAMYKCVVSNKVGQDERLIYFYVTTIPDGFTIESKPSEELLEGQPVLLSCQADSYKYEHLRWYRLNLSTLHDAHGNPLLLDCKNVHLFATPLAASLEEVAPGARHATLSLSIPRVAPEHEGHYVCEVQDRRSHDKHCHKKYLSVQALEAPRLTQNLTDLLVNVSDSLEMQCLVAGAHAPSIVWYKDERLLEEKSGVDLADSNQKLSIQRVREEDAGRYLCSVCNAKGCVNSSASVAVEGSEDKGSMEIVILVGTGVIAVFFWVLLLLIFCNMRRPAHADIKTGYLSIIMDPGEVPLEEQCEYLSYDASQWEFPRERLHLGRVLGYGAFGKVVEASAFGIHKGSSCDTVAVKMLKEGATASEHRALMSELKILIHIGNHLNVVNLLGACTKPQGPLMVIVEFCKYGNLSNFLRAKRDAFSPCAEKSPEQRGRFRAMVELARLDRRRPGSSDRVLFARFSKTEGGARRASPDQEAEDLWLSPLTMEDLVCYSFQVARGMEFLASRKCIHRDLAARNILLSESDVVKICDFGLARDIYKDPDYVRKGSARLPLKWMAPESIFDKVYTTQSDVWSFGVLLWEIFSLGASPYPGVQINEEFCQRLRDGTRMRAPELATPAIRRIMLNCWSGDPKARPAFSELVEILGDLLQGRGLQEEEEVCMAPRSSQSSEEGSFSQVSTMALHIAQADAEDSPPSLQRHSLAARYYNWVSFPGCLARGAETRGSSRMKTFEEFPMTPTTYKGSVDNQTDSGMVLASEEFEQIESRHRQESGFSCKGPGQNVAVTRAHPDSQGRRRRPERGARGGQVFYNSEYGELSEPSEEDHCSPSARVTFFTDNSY

PAK4 = biological target: T8, PAK4 (Homo sapiens, UniProt O96013); test: Kinase panel (Millipore); assay type: biochemical; details: 1 µM, ATP at Km
T8 construct: purchased Millipore (KinaseProfiler) kinase panel

JNK2ALPHA2 = JNK2ALPHA2 (Homo sapiens, UniProt P45984); test: Kinase panel (Millipore); assay type: biochemical; details: 1 µM, ATP at Km
SGK3 = biological target: T9, SGK3 (Homo sapiens, UniProt Q96BR1); test: Kinase panel (Millipore); assay type: biochemical; details: 1 µM, ATP at Km
T9 construct: purchased Millipore (KinaseProfiler) kinase panel
T9 sequence (Q96BR1 whole entry): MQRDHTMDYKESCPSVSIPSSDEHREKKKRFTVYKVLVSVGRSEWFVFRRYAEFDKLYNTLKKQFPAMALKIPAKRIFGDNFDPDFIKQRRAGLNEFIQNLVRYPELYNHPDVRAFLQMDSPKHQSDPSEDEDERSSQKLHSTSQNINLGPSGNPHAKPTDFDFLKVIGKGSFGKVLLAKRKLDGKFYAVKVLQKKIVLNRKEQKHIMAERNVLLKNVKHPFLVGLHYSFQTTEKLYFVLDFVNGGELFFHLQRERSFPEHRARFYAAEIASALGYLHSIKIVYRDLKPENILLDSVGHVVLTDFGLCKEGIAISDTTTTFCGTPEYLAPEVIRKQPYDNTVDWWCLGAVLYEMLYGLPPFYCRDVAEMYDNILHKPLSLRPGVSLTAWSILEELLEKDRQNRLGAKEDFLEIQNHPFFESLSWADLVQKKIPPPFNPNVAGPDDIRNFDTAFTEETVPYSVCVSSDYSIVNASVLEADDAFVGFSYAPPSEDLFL

SRPK1 = biological target: T10, SRPK1 (Homo sapiens, UniProt Q96SB4); test: Kinase panel (Millipore); assay type: biochemical; details: 1 µM, ATP at Km
T10 construct: purchased Millipore (KinaseProfiler) kinase panel

PKCBETAI = PKCBETAI (Homo sapiens, UniProt P05771); test: Kinase panel (Millipore); assay type: biochemical; details: 1 µM, ATP at Km
Chain of PKCBETAI (P05771 whole entry): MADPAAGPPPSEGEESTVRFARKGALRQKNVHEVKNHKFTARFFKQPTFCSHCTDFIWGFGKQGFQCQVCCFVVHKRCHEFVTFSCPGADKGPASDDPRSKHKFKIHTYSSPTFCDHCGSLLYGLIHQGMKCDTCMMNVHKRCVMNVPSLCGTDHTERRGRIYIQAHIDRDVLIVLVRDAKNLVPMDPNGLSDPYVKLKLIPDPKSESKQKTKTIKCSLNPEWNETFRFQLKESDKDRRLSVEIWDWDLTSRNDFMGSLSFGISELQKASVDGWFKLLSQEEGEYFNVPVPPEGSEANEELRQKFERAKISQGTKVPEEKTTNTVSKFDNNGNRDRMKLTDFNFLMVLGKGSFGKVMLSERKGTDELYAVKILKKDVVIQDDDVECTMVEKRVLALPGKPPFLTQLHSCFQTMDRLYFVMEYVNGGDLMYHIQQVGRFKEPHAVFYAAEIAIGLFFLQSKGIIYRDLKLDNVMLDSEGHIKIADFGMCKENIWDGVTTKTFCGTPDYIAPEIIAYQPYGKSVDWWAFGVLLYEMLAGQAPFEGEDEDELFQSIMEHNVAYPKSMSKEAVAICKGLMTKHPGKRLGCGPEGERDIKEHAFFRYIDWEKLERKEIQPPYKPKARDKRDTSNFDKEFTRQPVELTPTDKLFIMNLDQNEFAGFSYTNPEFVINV

TAO1 = biological target: T11, TAO1 (Homo sapiens, UniProt Q7L7X3); test: Kinase panel (Millipore); assay type: biochemical; details: 1 µM, ATP at Km
T11 construct: purchased Millipore (KinaseProfiler) kinase panel

TSSK2 = biological target: T12, TSSK2 (Homo sapiens, UniProt Q96PF2); test: Kinase panel (Millipore); assay type: biochemical; details: 1 µM, ATP at Km
T12 construct: purchased Millipore (KinaseProfiler) kinase panel
T12 sequence (Q96PF2 whole entry): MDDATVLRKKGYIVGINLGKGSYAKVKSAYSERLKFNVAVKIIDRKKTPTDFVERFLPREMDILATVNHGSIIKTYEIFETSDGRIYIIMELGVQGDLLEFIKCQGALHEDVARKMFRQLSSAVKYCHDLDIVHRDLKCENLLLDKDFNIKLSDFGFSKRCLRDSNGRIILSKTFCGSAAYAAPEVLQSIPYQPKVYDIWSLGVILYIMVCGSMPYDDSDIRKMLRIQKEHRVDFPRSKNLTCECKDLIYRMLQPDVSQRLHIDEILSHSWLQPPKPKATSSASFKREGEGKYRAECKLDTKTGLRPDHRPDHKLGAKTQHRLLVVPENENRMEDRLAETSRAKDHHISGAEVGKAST

ULK3 = biological target: T13, ULK3 (Homo sapiens, UniProt Q6PHR2); test: Kinase panel (Millipore); assay type: biochemical; details: 1 µM, ATP at Km
T13 construct: purchased Millipore (KinaseProfiler) kinase panel

CAMKIIBETA = CAMKIIBETA (Homo sapiens, UniProt Q13554); test: Kinase panel (Millipore); assay type: biochemical; details: 1 µM, ATP at Km
Chain of CAMKIIBETA (Q13554 whole entry): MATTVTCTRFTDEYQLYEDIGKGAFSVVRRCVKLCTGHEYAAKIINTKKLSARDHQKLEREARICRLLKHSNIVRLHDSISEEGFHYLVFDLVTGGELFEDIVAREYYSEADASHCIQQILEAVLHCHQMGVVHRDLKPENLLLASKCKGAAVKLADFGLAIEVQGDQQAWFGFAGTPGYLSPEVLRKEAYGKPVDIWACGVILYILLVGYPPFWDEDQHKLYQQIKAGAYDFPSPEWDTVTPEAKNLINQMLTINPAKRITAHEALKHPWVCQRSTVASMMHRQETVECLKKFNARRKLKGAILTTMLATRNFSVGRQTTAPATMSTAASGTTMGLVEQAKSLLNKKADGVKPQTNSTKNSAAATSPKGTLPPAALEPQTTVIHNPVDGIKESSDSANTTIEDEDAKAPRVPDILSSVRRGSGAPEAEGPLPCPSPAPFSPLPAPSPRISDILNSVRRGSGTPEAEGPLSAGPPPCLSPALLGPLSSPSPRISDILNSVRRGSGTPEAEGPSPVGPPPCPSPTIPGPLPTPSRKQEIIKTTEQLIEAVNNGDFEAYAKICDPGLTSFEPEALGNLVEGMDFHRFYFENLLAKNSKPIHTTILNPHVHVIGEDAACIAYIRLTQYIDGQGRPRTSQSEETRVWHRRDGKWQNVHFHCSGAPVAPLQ

ROCK-I = ROCK-I (Homo sapiens, UniProt Q13464); test: Kinase panel (Millipore); assay type: biochemical; details: 1 µM, ATP at Km
RSK1 = biological target: T14, RSK1 (Homo sapiens, UniProt Q15418); test: Kinase panel (Millipore); assay type: biochemical; details: 1 µM, ATP at Km
T14 construct: purchased Millipore (KinaseProfiler) kinase panel

GABA transporter = details: 10 µM, antagonist radioligand
CDK2/CYCLINA = CDK2/CYCLINA (Homo sapiens, UniProt P24941); details: 1 µM, ATP at Km
CDK5/P25 = CDK5/P25 (Homo sapiens, UniProt Q00535); details: 1 µM, ATP at Km
EGFR(L858R) = EGFR(L858R) (Homo sapiens, UniProt P00533, L858R); details: 1 µM, ATP at Km
FGFR1(V561M) = FGFR1(V561M) (Homo sapiens, UniProt P11362, V561M); details: 1 µM, ATP at Km
FGFR2(N549H) = FGFR2(N549H) (Homo sapiens, UniProt P21802, N549H); details: 1 µM, ATP at Km
in vivo = details: NCr athymic, mouse, po, 30 mg/kg
alpha 2C (h) = alpha 2C (h) (Homo sapiens, UniProt P18825); test: biochemical; details: read-out: % Inhibition of Control Specific Binding
D3 (h) = D3 (h) (Homo sapiens, UniProt P35462); test: biochemical; details: read-out: % Inhibition of Control Specific Binding

Cn1ncc2cc(-c3cnc(N)c(Cl)c3N3CCC4(CCNC4=O)CC3)ccc21 [Compound 109, 8-(2-Amino-3-chloro-5-(1-methyl-1H-indazol-5-yl)pyridin-4-yl)-2,8-diazaspiro[4.5]decan-1-one]
inhibition at 10 µM (BB3 (h)): -11%
inhibition at 10 µM (BLT1 (LTB4) (h)): 16%
inhibition at 10 µM (MCH1 (h)): 34%
Vd [1]: 1.4 L/kg
clearance [1]: 6 mL/min/kg
% effect (ALK4): 2%
% effect (LIMK1): -13%
% effect (ASK1): 17%
% effect (LYN): -3%
% effect (MAPK2): -6%
% effect (MEK1): -13%
% effect (CAMKIV): 14%
% effect (FGFR4): 6%
% effect (FLT3): 7%
% effect (MLK1): -10%
% effect (FLT4): -38%
% effect (PAK4): -1%
% effect (JNK2ALPHA2): -5%
% effect (SGK3): 13%
% effect (SRPK1): -8%
% effect (PKCBETAI): -4%
% effect (TAO1): 6%
% effect (TSSK2): 9%
% effect (ULK3): -21%
% effect (CAMKIIBETA): 19%
% effect (ROCK-I): 6%
% effect (RSK1): 13%
% Inhibition of Control Specific Binding (GABA transporter): 3%
% effect (CDK2/CYCLINA): 1%
% effect (CDK5/P25): 13%
% effect (EGFR(L858R)): -4%
% effect (FGFR1(V561M)): -25%
% effect (FGFR2(N549H)): 1%
concentration at 1 h (in vivo; Free Plasma conc.): 523 nM
concentration at 2 h (in vivo; Free Plasma conc.): 240 nM
concentration at 6 h (in vivo; Free Plasma conc.): 29 nM
concentration at 24 h (in vivo; Free Plasma conc.): 3 nM
concentration at 1 h (in vivo; Free tumor conc.): 171 nM
concentration at 2 h (in vivo; Free tumor conc.): 120 nM
concentration at 6 h (in vivo; Free tumor conc.): 55 nM
concentration at 24 h (in vivo; Free tumor conc.): 28 nM
concentration at 1 h (in vivo; Total Plasma conc.): 14900 nM
concentration at 2 h (in vivo; Total Plasma conc.): 6860 nM
concentration at 6 h (in vivo; Total Plasma conc.): 822 nM
concentration at 24 h (in vivo; Total Plasma conc.): 90 nM
concentration at 1 h (in vivo; Total tumor conc.): 4880 nM
concentration at 2 h (in vivo; Total tumor conc.): 3420 nM
concentration at 6 h (in vivo; Total tumor conc.): 1570 nM
concentration at 24 h (in vivo; Total tumor conc.): 796 nM
inhibition at 10 µM (alpha 2C (h)): 25%
inhibition at 10 µM (D3 (h)): 7%
